IC50 data for 16 compounds are collected here from US20180273538A1, “PYRROLO[2,3-d]PYRIMIDINE DERIVATIVES, A PROCESS FOR THEIR PREPARATION AND PHARMACEUTICAL COMPOSITIONS CONTAINING THEM” (LES LABORATOIRES SERVIER, priority 2015, published 2018).

In this assay the target is T1, His-TEV-DYRK1A Kinase domain (aa127-485) (Homo sapiens, UniProt Q13627).
T1 construct: His-TEV-DYRK1A Kinase domain (aa127-485); His (N); TEV cleavage site (N)
Nature of the assay: Kinase ADP assay (ADP Hunter Plus). In kind it is biochemical.
In the case of `Cc1cc(-c2c[nH]c3nc(C)nc(OC[C@@H]4CCCNC4)c23)ccn1` [Example 6, 2-methyl-5-(2-methylpyridin-4-yl)-4-[(3R)-piperidin-3-ylmethoxy]-7H-pyrrolo[2,3-d]pyrimidine], the IC50 was 0.07 µM.
As for `Cc1nc(OCC2CC2)c2c(-c3ccncc3)c[nH]c2n1` [Example 7, 4-(cyclopropylmethoxy)-2-methyl-5-(pyridin-4-yl)-7H-pyrrolo[2,3-d]pyrimidine], the IC50 came to 0.039 µM.
On to `Cc1nc(OCCC2CC2)c2c(-c3ccncc3)c[nH]c2n1` [Example 8, 4-(2-cyclopropylethoxy)-2-methyl-5-(pyridin-4-yl)-7H-pyrrolo[2,3-d]pyrimidine], for which the concentration for half-maximal inhibition (IC50) was 0.038 µM.
Regarding `Cc1nc(OCCc2c[nH]c3ccccc23)c2c(-c3ccncc3)c[nH]c2n1` [Example 9, 4-[2-(1H-indol-3-yl)ethoxy]-2-methyl-5-(pyridin-4-yl)-7H-pyrrolo[2,3-d]pyrimidine], the 50% inhibitory concentration (IC50) is 0.06 µM.
Turning to `Cc1nc(OCCc2ccccc2)c2c(-c3ccncc3)c[nH]c2n1` [Example 10, 2-methyl-4-(2-phenylethoxy)-5-(pyridin-4-yl)-7H-pyrrolo[2,3-d]pyrimidine], the IC50 turned out to be 0.085 µM.
Turning to `Cc1nc(OCCN2CCCC2)c2c(-c3ccncc3)c[nH]c2n1` [Example 12, 2-methyl-5-(pyridin-4-yl)-4-[2-(pyrrolidin-1-yl)ethoxy]-7H-pyrrolo[2,3-d]pyrimidine], the half-maximal inhibitory concentration (IC50) came to 2.04 µM.
`Cc1nc(OCCN2CCCCC2)c2c(-c3ccncc3)c[nH]c2n1` [Example 13, 2-methyl-4-[2-(piperidin-1-yl)ethoxy]-5-(pyridin-4-yl)-7H-pyrrolo[2,3-d]pyrimidine]: the half-maximal inhibitory concentration (IC50) came to 1.37 µM.
On to `Cc1nc(OCC2CCCO2)c2c(-c3ccncc3)c[nH]c2n1` (stereo not shown) [Example 14, 2-methyl-5-(pyridin-4-yl)-4-(tetrahydrofuran-2-ylmethoxy)-7H-pyrrolo[2,3-d]pyrimidine], for which the IC50 came out at 0.043 µM.
As to `Cc1nc(OCc2cccs2)c2c(-c3ccnc(N)c3)c[nH]c2n1` [Example 19, 4-[2-methyl-4-(thiophen-2-ylmethoxy)-7H-pyrrolo[2,3-d]pyrimidin-5-yl]pyridin-2-amine], the IC50 was determined as 0.025 µM.
Consider `Cc1nc(OCc2cccnc2)c2c(-c3ccnc(N)c3)c[nH]c2n1` [Example 22, 4-[2-methyl-4-(pyridin-3-ylmethoxy)-7H-pyrrolo[2,3-d]pyrimidin-5-yl]pyridin-2-amine], for which the half-maximal inhibitory concentration (IC50) turned out to be 0.018 µM.
Turning to `Cc1nc(OCc2ccncc2)c2c(-c3ccnc(N)c3)c[nH]c2n1` [Example 23, 4-[2-methyl-4-(pyridin-4-ylmethoxy)-7H-pyrrolo[2,3-d]pyrimidin-5-yl]pyridin-2-amine], the IC50 was 0.015 µM.
As to `Cc1nc(OCc2cc(-c3ccc(F)cc3)on2)c2c(-c3ccnc(N)c3)c[nH]c2n1` [Example 24, 4-(4-{[5-(4-fluorophenyl)-1,2-oxazal-3-yl]methoxy}-2-methyl-7H-pyrrolo[2,3-d]pyrimidin-5-yl)pyridin-2-amine], the IC50 is 0.066 µM.
For `COc1ccc(COc2nc(C)nc3[nH]cc(-c4ccnc(N)c4)c23)cc1` [Example 26, 4-{4-[(4-methoxybenzyl)oxy]-2-methyl-7H-pyrrolo[2,3-d]pyrimidin-5-yl}pyridin-2-amine], the IC50 was determined as 0.029 µM.
`Cc1nc(N(C)C)c2c(-c3ccnc(N)c3)c[nH]c2n1` [Example 29, 5-(2-aminopyridin-4-yl)-N,N,2-trimethyl-7H-pyrrolo[2,3-d]pyrimidin-4-amine]: the IC50 was 0.062 µM.
Turning to `Cc1nc(N2CCCC2)c2c(-c3ccnc(N)c3)c[nH]c2n1` [Example 30, 4-[2-methyl-4-(pyrrolidin-1-yl)-7H-pyrrolo[2,3-d]pyrimidin-5-yl]pyridin-2-amine], the IC50 was 0.827 µM.
Turning to `Cc1nc(N2CCC(N(C)C)C2)c2c(-c3ccnc(N)c3)c[nH]c2n1` (stereo not shown) [Example 31, 4-{4-[3-(dimethylamino)pyrrolidin-1-yl]-2-methyl-7H-pyrrolo[2,3-d]pyrimidin-5-yl}pyridin-2-amine], the IC50 was 1.07 µM.
